Consider one substance from US8642516B2, “Chemically-defined arrays for screening cell-substrate interactions” (Wisconsin Alumni Research Foundation, priority 2012, dated 2014).

One test concerns hMSC. Put plainly: Alkaline phosphatase activity staining of hMSCs on SAM arrays. Format: cell-based, human. Particulars: high GRGDSP density SAM spots, 7 days. From the text:
In this SAM array approach, each spot was designed to contain the same total molar density (mol/cm^2) of peptide from spot to spot. Therefore, control over individual peptide density was achieved by mixing scrambled BR-BP and HPG-BP and mutant GRGESP (SEQ ID NO:19) peptides with functional BR-BP, HPG-BP or GRGDSP (SEQ ID NO:18) peptides, respectively. Therefore, in a typical SAM array, SAMs were locally formed within spots using an alkanethiolate mixture of 95% HS—C11-EG3-OH and 5% HS—C11-EG6-COOH to create substrates with a total of 5% carboxylate groups for peptide conjugation. Here, “X %” refers to the mole percent of alkanethiolate present during SAM formation and subsequently the approximate amount of an alkanethiolate present on the surface after SAM formation. To regulate the density of active peptide present in each spot, mutant and scramble versions of peptides were included during peptide conjugation. […] As mentioned previously, peptide concentrations were easily measured using UV/Vis since all peptides either contained residues that absorbed strongly at 280 nm, or were engineered to contain tryptophan residues in the poly-glycine tail. […]

The subject of the next test is HUVEC. Kind of test: HUVEC proliferation (Click-it EdU) in response to soluble morphogens on SAM arrays. The note with it: increased immobilized GRGDSP density. Format: cell-based, human.

Description for HUVEC: Specifically, SAM array spots presenting mixed ligands were prepared as described above. SAM arrays presenting varied ligand densities of covalently immobilized VEGF receptor-binding peptide ([sequence], here referred to as “VR-BP”; SEQ ID NO:17) and varied ligand densities of the fibronectin-derived cell adhesion peptide (GRGDSP, SEQ ID NO:18) were used to probe for changes in HUVEC attachment, proliferation and tubulogenesis. Control over individual ligand density was achieved by mixing scrambled VR-BP and mutant GRGESP (SEQ ID NO:19) with functional VR-BP or GRGDSP (SEQ ID NO:18) peptides, respectively. Therefore, in a typical SAM array, SAMs were locally formed within spots using an alkanethiolate mixture of 94% HS—C11-EG3-OH and 6% HS—C11-EG6-COOH to create substrates with a total of 6% carboxylate groups for peptide conjugation. Next, to create a spot presenting 5% GRGDSP (SEQ ID NO:18) and 1% VR-BP, a 300 μM peptide solution with 250 μM GRGDSP (SEQ ID NO:18) and 50 μM VR-BP was used during peptide conjugation. Likewise, to create a spot presenting 2.5% GRGDSP (SEQ ID NO:18) and 0.1% VR-BP, a 300 μM peptide solution with 125 μM GRGDSP (SEQ ID NO:18), 125 μM GRGESP (SEQ ID NO:19), 5 μM VR-BP and 45 μM scrambled peptide was used during peptide conjugation. In this manner, the amount of active ligand could be varied between spots while holding the total ligand content constant.
Passage 2 HUVECs were expanded at low cell density (less than 70% confluence) on tissue culture polystyrene to no more than 14 population doublings. During HUVEC expansion, cells were cultured in medium 199 (m199, Mediatech, Manassas, Va.) containing 1% penicillin/streptomycin (Hyclone, Logan, Utah) and supplemented with Clonetics EGM-2 BullitKit (Lonza Walkersville, Inc., Walkersville, Md.) containing Hydrocortisone, hFGF-B, VEGF, R3-IGF-1, Ascorbic Acid, Heparin, FBS, hEGF, GA-1000 growth supplements. […]

Turning to GRGDSP, the “staining for alkaline phosphatase activity” value in the test on hMSC is “increased staining for alkaline phosphatase activity”. For the same substance, the “HUVEC proliferation dependence on ligand density” value in the test with HUVEC is “increased proliferation”.
